Counter-ions that a name gives are not always drawn.
Assays:
[1] = tested on: Male ICR mice; assay: Mice tail suspension test; assay type: in vivo
Source text: (§1) The following method is used for testing the antidepression effect of the compound of the present application. ICR mice or SD rats, gavaged for two successive weeks, were subjected to mice swimming test, mice tail suspension test and rats swimming test. See below for details of the tests and results.
The animals, medicaments, calculation of dosages to the mice, preparation of drug solution and apparatus are the same as those in the mice swimming test.
The medicaments were correspondingly administered by gavage, once a day, to the animals in the groups for 14 successive days, with the amount of 0.2 ml per 10 g of body weight. The mice were subjected to tail suspension one hour later after the last oral administration. The suspension continued for 6 min.
The data was given as “average±standard deviation” (x±s). One-way analysis of variance (ANOVA) was used for data difference statistics. Differences among the groups were determined by P<0.05.

[2] = tested on: Male ICR mice; assay: Mice swimming test; assay type: in vivo
Source text: as §1
Male ICR mice weighing 18 g to 20 g were used. They were fed on sterilized standard feed.
The compound administered in the test was 1-{2-[2,4-bis(trideuteriomethyl)phenylsulfanyl]phenyl}piperazine hydrobromic acid salt (XX for short). Vortioxetine (YY for short) was used as a control sample. Venlafaxine HCl (from Wyeth, USA) was used as a positive control.
Vortioxetine (15 mg) was combined with 10% hydroxypropyl-β-cyclodextrin to form a solution of 100 mL and was administered at daily dose of 3 mg/kg. 1-{2-[2,4-bis(trideuteriomethyl)phenylsulfanyl]phenyl}piperazine hydrobromic acid salt (15 mg and 7.5 mg) was combined with 10% hydroxypropyl-β-cyclodextrin to form two solutions of 100 mL and was administered at daily doses of 3 mg/kg and 1.5 mg/kg, respectively. Venlafaxine HCl (75 mg) was combined with 0.5% CMC-Na to form a solution of 100 mL and was administered at daily dose of […].
A recording and analysis system for small-animal behavior (Noldus) was used.
All the eighty mice were subjected to prescreening one day before the administration. The mice, fasted for 4 hours were put in a round glass tank (ø 14 cm×h 20 cm, with water of 10 cm depth and at a temperature of 25° C.) to swim. […] The whole swimming course was recorded by the video and the data were collected and analyzed automatically by Noldus software.
The forty qualified mice were divided into 4 groups, each of which had 10 mice, according to the Excel random grouping.
The medicaments were administered to each group by gavage with the amount of 0.2 ml per 10 g of body weight, once a day for 14 successive days. One hour later after the last oral administration, the mice were allowed to swim for 6 min. The video recorded the whole swimming course, and the Noldus software automatically collected and analyzed the data.
The data was given as “average±standard deviation” (x±s). One-way analysis of variance (one-way ANOVA) was used for data difference statistics. Differences among the groups were determined by P<0.05.

[3] = 30 mg/kg gavage, two successive weeks

COc1ccc(C(CN(C)C)C2(O)CCCCC2)cc1 (stereo not shown) [Venlafaxine, Venlafaxine HCl, reference compound] was tested, and the “effect on length of time that the tail-suspended mice stopped moving vs blank control” value [1, 3] was “markedly shortened”, the “Duration without Move within 6 min” value ([1]; mice tail suspension, gavage 14 days, 30 mg/kg, n = 10, x ± s) was 180.6 ± 661.8 s and the “effect on length of time that the mice stopped swimming vs blank control” value [2, 3] was “markedly shortened”. The “Duration without Movement within the Last 4 min of the Whole 6 min” value ([2]; mice, gavage once a day for 14 days, 30 mg/kg, n = 10, x ± s) was 173.6 ± 31.4 s.

— patent publication US9896423B2, “Deuterium substituted 1-[2-(2,4-dimethyl-phenylsulfanyl)-phenyl]piperazine compound or derivatives thereof, and pharmaceutical composition and use thereof” (Jiangsu Jibeier Pharmaceutical Co. Ltd., priority 2014, dated 2018)
